For one experiment, the system named is male Sprague-Dawley rats. Put plainly: in vivo screen APCC in cholesterol-fed rats. As to conditions: Rattus norvegicus, po, 30 mg/kg by gavage, high fat, high cholesterol diet overnight, versus vehicle and diet only, read-out: APCC percent change in total cholesterol (%TC) from control animals. From the text:
In an in vivo screen designated APCC, male Sprague-Dawley rats (200-225 g body weight) were randomly divided into treatment groups and dosed at 4 PM with either vehicle (CMC/Tween) or suspensions of invention compounds in vehicle. The normal chow diet was then replaced with a high fat, high cholesterol diet (5.5% peanut oil, 1.5% cholesterol, and 0.5% cholic acid). The rats consumed this diet ad libitum during the night and were sacrificed at 8 AM to obtain blood samples for cholesterol analysis using standard procedures. Statistical differences between mean cholesterol values for the same vehicle were determined using analysis of variance followed by Fisher's least significant test. The results of this trial for representative compounds of the present invention also appear in Table I as the percent change in total cholesterol (%TC) from control animals given vehicle and diet only. All compounds in the APCC test reported in Table 1 were administered by gavage at 30 mg/kg.

Experiment [1] deals with T1, acyl-CoA: cholesterol acyltransferase (ACAT) (Rattus norvegicus, UniProt Q7TQM4).
T1 construct: tissue preparation containing rat liver microsomes; from tissue; host or cells: rat liver microsomes
T1 sequence (Q7TQM4 1-524): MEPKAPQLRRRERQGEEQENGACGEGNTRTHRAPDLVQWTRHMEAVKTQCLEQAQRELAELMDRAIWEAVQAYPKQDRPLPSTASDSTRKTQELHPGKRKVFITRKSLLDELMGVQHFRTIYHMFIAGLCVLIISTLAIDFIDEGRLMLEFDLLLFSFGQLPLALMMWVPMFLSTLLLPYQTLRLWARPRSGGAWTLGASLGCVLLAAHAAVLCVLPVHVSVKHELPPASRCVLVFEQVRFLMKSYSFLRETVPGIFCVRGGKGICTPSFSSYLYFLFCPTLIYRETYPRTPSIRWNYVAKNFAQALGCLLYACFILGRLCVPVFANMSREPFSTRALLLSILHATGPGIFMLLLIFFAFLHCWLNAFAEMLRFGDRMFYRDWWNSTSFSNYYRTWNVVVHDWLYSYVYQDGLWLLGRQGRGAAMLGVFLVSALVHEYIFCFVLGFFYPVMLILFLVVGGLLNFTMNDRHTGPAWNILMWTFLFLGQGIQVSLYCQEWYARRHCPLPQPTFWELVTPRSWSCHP
Put plainly: in vitro ACAT inhibition test in rat liver microsomes (LAI). It is filed as biochemical. On the procedure:
The ability of representative compounds of the present invention to inhibit ACAT was measured using an in vitro test more fully described in F.J. Field and R.G. Salone, Biochemica et Biophysica Acta, 772:557-570 (1982). The test assesses the ability of a test compound to inhibit the acylation of cholesterol by oleic acid by measuring the amount of radiolabeled cholesterol oleate formed from radiolabeled oleic acid in a tissue preparation containing rat liver microsomes (designated LAI).
Background: Microsomes from liver hold many membrane-bound enzymes, among them those of drug oxidation.

[2] abbreviates: rat liver microsomes, formation of radiolabeled cholesterol oleate from radiolabeled oleic acid, read-out: LAI IC50.

Like-named read-outs stand apart in the source and are kept apart here.

As a reminder, the IC50 is the concentration at which inhibition is half-maximal. For `CC(C)c1cc(C(C)C)c(OS(=O)(=O)CC(=O)N(Cc2ccccc2)Cc2ccccc2)c(C(C)C)c1` [Example 1, 2,4,6-Triisopropylphenyl N,N-dibenzylcarbamoylmethylsulfonate], in the experiment with male Sprague-Dawley rats, the change in vivo at 30 mg/kg was -7%. In addition, the IC50 in experiment [1] (setting [2]) was greater than 5000 nM.
Take `CC(C)c1cc(C(C)C)c(OS(=O)(=O)CC(=O)NC(c2ccccc2)c2ccccc2)c(C(C)C)c1` [Example 2, 2,4,6-Triisopropylphenyl N-diphenylmethylcarbamoylmethyl sulfonate]: the change in vivo at 30 mg/kg in the experiment on male Sprague-Dawley rats is -19%. Also, in experiment [1] (setting [2]), the IC50 was 790 nM.
The matching figures for `CCCCCCCCCCCCNC(=O)CS(=O)(=O)Oc1c(C(C)C)cccc1C(C)C` [Example 3, 2,6-Diisopropylphenyl N-dodecyl carbamoylmethyl sulfonate]: -3% and 3000 nM.
The matching figures for `CC(C)c1cccc(C(C)C)c1OS(=O)(=O)CC(=O)NC(c1ccccc1)c1ccccc1` [Example 4, 2,6-Diisopropylphenyl N-diphenylmethylcarbamoylmethyl sulfonate]: -43% and 1800 nM.
Consider `CC(C)c1cccc(C(C)C)c1OS(=O)(=O)CC(=O)O` [Example 5, 2,6-Diisopropylphenoxysulfonyl acetic acid], for which the change in vivo at 30 mg/kg in the experiment with male Sprague-Dawley rats was -31%. In experiment [1], this compound registered an IC50 greater than 50000 nM.
As to `CC(C)c1cc(C(C)C)c(NC(=O)CS(=O)(=O)Oc2c(C(C)C)cccc2C(C)C)c(C(C)C)c1` [Example 6], the change in vivo at 30 mg/kg in the experiment with male Sprague-Dawley rats was -31%. Moreover, the IC50 in experiment [1] (setting [2]) turned out to be 1660 nM.
For the compound `CSc1ccc(CN(C(=O)CS(=O)(=O)Oc2c(C(C)C)cc(C(C)C)cc2C(C)C)C(C)C)cc1` [Example 7, 2,4,6-Triisopropylphenyl N-isopropyl-N-(4-thiomethylphenylmethyl)carbamoylmethyl sulfonate], the change in vivo at 30 mg/kg in the experiment on male Sprague-Dawley rats is -17%. The IC50 in experiment [1] (setting [2]) was 3600 nM.
As for `CC(C)c1cccc(C(C)C)c1OC(=O)CS(=O)(=O)Oc1c(C(C)C)cccc1C(C)C` [Example 8, 2,6-Diisopropylphenyl (2,6-diisopropylphenoxycarbonyl)methylsulfonate], the change in vivo at 30 mg/kg in the experiment on male Sprague-Dawley rats is -21%. Moreover, in experiment [1] (setting [2]), the IC50 was 1500 nM.
As to `CC(C)c1cc(C(C)C)c(OS(=O)(=O)CC(=O)Nc2c(C(C)C)cccc2C(C)C)c(C(C)C)c1` [Example 9], the change in vivo at 30 mg/kg in the experiment on male Sprague-Dawley rats was -61%. In addition, the half-maximal inhibitory concentration (IC50) in experiment [1] (setting [2]) is 7 nM.
The matching figures for `CC(C)c1cccc(C(C)C)c1NC(=O)CS(=O)(=O)Oc1c(C(C)C)cccc1C(C)C` [Example 10, 2.6-Diisopropylphenyl N-(2,6-diisopropylphenyl)carbamoylmethylsulfonate]: -42% and 27 nM.

The record behind these values is patent US5510379A, “Sulfonate ACAT inhibitors” (priority 1994, dated 1996).
